Measured values from publication PMC9781117, “New 5-Aryl-1,3,4-Thiadiazole-Based Anticancer Agents: Design, Synthesis, In Vitro Biological Evaluation and In Vivo Radioactive Tracing Studies” (Pharmaceuticals, 2022).
Converted amounts (≈) assume the structure as drawn.

What was measured:
[1] = test system: MCF-7 breast adenocarcinoma cells; test: MTT cytotoxicity assay, MCF-7; type: cell-based, human; details: for IC50: Homo sapiens, MCF7; for IC50 / IC50 MCF-7: MTT, 48 h, means ± SD of three independent experiments; for fold increase in activity relative to parent analogue: MCF-7, 4d vs 4c, 5b, 5c, 5d vs 5a
Procedure: (§1) The in vitro cytotoxicity of the synthesized 1,3,4-thiadiazole derivatives against breast adenocarcinoma cells (MCF-7) and human hepatocellular carcinoma (HepG2) cell lines were evaluated by the MTT assay, using 5-Fluorouracil (5-FU) as a positive control.
(§2) Human hepatocellular carcinoma (HepG2) cells and breast adenocarcinoma (MCF7) cells were purchased from the American Type Culture Collection (ATCC, USA). Under 37 °C with 5% CO2 in a humid incubator, cells were propagated using RPMI supplemented with 10% fetal bovine serum (FBS) and 1% v/v penicillin-streptomycin.
(§3) According to Tim Mosmann’s approach, an MTT assay was performed to assess the antiproliferative properties of the compounds. In short, HepG2 or MCF7 cells (0.5 × 105) were grown in flat-bottom 96-well microplates in 180 μL/well RPMI media supplemented with 10% fetal bovine serum, 2μmol/mL L-glutamine, 250 ng/mL fungizone, and 100 units/mL penicillin-streptomycin solutions at 37 °C in a CO2 incubator. Following incubation, 180 μL/well of the new serum-free medium was added to each well after the old media had been withdrawn. After that, cells were exposed to 20 μL of various concentrations of the compounds (50–0.75 μg/mL) and were incubated for 48 h at 37 °C in a humidified 5% CO2 environment. The MTT solution (20 µL/well) was added and incubated for a further 4 h. The plate was agitated at room temperature while acidified isopropanol (160 μL/well) was added to dissolve the formazan crystals. The absorbance at 570 nm was then determined photometrically using the microplate ELISA reader (FLUOstar Omega, BMG, Labtech, Germany). Graph-Pad PRISM version 6 was used to determine the IC50 for each compound.

[2] = test system: HepG2 human hepatocellular carcinoma cells; test: MTT cytotoxicity assay, HepG2; type: cell-based; details: MTT, 48 h, means ± SD of three independent experiments; for IC50: Homo sapiens, HepG2
Procedure: as §1, §2, §3

[3] = test system: breast cancer MCF-7 cells; design: method as in PMID 22261027; details: cited from earlier work

Row | Compound | IC50 [1] [µg/mL] | IC50 [2] [µg/mL] | IC50 MCF-7 [1] [µg/mL] | IC50 HepG2 [2] [µg/mL] | other results
1 | CCN1CCN(CC(=O)Nc2nnc(-c3ccc(Cl)cc3)s2)CC1 [Compound 4b, N-(5-(4-Chlorophenyl)-1,3,4-Thiadiazol-2-yl)-2-(4-Ethylpiperazin-1-yl)Acetamide] | 25.2 ± 1.3 (≈ 68.9 µM) | 3.55 ± 0.05 (≈ 9.7 µM) | – | – | –
2 | 4-((5-(4-Chlorophenyl)-1,3,4-Thiadiazol-2-yl)Imino)-N-(4-Ethylphenyl)-4,5-Dihydrothiazol-2-Amine [Compound 5c] | – | – | 5.72 ± 0.17 | 11.25 ± 0.44 | fold increase in activity relative to parent analogue [1]: 2- to 4 fold
3 | CCOc1ccc(N2CCN(CC(=O)Nc3nnc(-c4ccc(Cl)cc4)s3)CC2)cc1 [Compound 4f, N-(5-(4-Chlorophenyl)-1,3,4-Thiadiazol-2-yl)-2-(4-(4-Ethoxyphenyl)Piperazin-1-yl)Acetamide] | 18.4 ± 0.85 (≈ 40.2 µM) | 38.1 ± 0.14 (≈ 83.2 µM) | – | – | melting point: 225 to 227 °C
4 | 4-((5-(4-Chlorophenyl)-1,3,4-Thiadiazol-2-yl)Imino)-N-Phenyl-4,5-Dihydrothiazol-2-Amine [Compound 5a] | – | – | 24.79 ± 2.30 | 26.12 ± 2.02 | –
5 | O=C(CN1CCN(c2ccc(F)cc2)CC1)Nc1nnc(-c2ccc(Cl)cc2)s1 [Compound 4g, N-(5-(4-Chlorophenyl)-1,3,4-Thiadiazol-2-yl)-2-(4-(4-Fluorophenyl)Piperazin-1-yl)Acetamide] | 10.1 ± 1.2 (≈ 23.4 µM) | 13.9 ± 0.59 (≈ 32.1 µM) | – | – | –
6 | O=C(C[n+]1ccccc1)Nc1nnc(-c2ccc(Cl)cc2)s1.[Cl-] [Compound 3, 1-(2-((5-(4-Chlorophenyl)-1,3,4-Thiadiazol-2-yl)Amino)-2-Oxoethyl)Pyridinium Chloride] | 7.56 ± 1.2 | 13 ± 0.11 | – | – | –
7 | 4-((5-(4-Chlorophenyl)-1,3,4-Thiadiazol-2-yl)Imino)-N-(4-Tolyl)-4,5-Dihydrothiazol-2-Amine [Compound 5b] | – | – | 12.64 ± 0.47 | 8.81 ± 0.64 | fold increase in activity relative to parent analogue [1]: 2- to 4 fold
8 | O=C(CN1CCN(c2ccccc2)CC1)Nc1nnc(-c2ccc(Cl)cc2)s1 [Compound 4c, N-(5-(4-Chlorophenyl)-1,3,4-Thiadiazol-2-yl)-2-(4-Phenylpiperazin-1-yl)Acetamide] | 49.4 ± 3.5 (≈ 119 µM) | 27.9 ± 0.93 (≈ 67.5 µM) | – | – | –
9 | O=c1[nH]cc(F)c(=O)[nH]1 [Compound 5-FU, 5-Fluorouracil, reference compound] | 6.8 ± 0.9 (≈ 52.3 µM) | 8.4 ± 1.2 (≈ 64.6 µM) | – | – | –
10 | CN1CCN(CC(=O)Nc2nnc(-c3ccc(Cl)cc3)s2)CC1 [Compound 4a, N-(5-(4-Chlorophenyl)-1,3,4-Thiadiazol-2-yl)-2-(4-Methylpiperazin-1-yl)Acetamide] | 51.56 ± 0.48 (≈ 147 µM) | 26.3 ± 5.76 (≈ 74.7 µM) | – | – | melting point: 168 to 170 °C
11 | 4-((4-((5-(4-Chlorophenyl)-1,3,4-Thiadiazol-2-yl)Imino)-4,5-Dihydrothiazol-2-yl)Amino)Phenol [Compound 5d] | – | – | 6.12 ± 0.51 | 14.12 ± 0.01 | fold increase in activity relative to parent analogue [1]: 2- to 4 fold
12 | O=C(CN1CCN(C(=O)c2ccco2)CC1)Nc1nnc(-c2ccc(Cl)cc2)s1 [Compound 4h, N-(5-(4-Chlorophenyl)-1,3,4-Thiadiazol-2-yl)-2-(4-(Furan-2-Carbonyl)Piperazin-1-yl)Acetamide] | 3.21 ± 0.3 (≈ 7.43 µM) | 8.35 ± 0.15 (≈ 19.3 µM) | – | – | –
13 | N-(4-Bromophenyl)-4-((5-(4-Chlorophenyl)-1,3,4-Thiadiazol-2-yl)Imino)-4,5-Dihydrothiazol-2-Amine [Compound 5e] | – | – | 3.77 ± 0.13 | 25.77 ± 0.64 | –
14 | COc1ccc(/C=C/C(=O)Nc2nnc(-c3ccc(OC)cc3)s2)cc1 [II] | – | – | – | – | IC50 MCF-7 growth inhibition [3]: 0.28 µg/mL (≈ 0.762 µM); cell cycle effect in MCF-7 cells [3]: cell cycle arrest at the G2/M phase
15 | Cc1ccc(N2CCN(CC(=O)Nc3nnc(-c4ccc(Cl)cc4)s3)CC2)cc1 [Compound 4d, N-(5-(4-Chlorophenyl)-1,3,4-Thiadiazol-2-yl)-2-(4-(4-Tolyl)Piperazin-1-yl)Acetamide] | 21.8 ± 0.43 (≈ 50.8 µM) | 44.9 ± 1.54 (≈ 105 µM) | – | – | fold increase in activity relative to parent analogue [1]: > 2 fold; melting point: 222 to 224 °C
